Converted amounts (≈) assume the structure as drawn.
How the values were obtained:
Assay type in all cases: cell-based
Candida albicans 90028 = assay: In vitro antifungal assay (Example IX), microdilution broth, MIC; conditions: minimum inhibitory concentration (≥50% inhibition), 35° C., 40-48 h, RPMI1640
Method in brief: (§1)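 CLSI broth microdilution in RPMI1640 with 2.5×10^3 cells/mL and final compound concentrations of 2-0.0019 μg/mL (1% DMSO). C. albicans 90028 plates were incubated at 35° C. for 40-48 h and C. neoformans H99 for 72 h. MIC was read as minimum inhibitory concentration, verified at 600 nm.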

[1] = system: Cryptococcus neoformans H99; assay: as above; conditions: minimum inhibitory concentration (≥50% inhibition), 35° C., 72 h, RPMI1640
Method in brief: as §1

[2] = system: Aspergillus fumigatus MYA3626; assay: In vitro antifungal assay (Example IX), microdilution broth, MEC; conditions: minimum effective concentration (shortening of hyphae), 35° C., 40-48 h, RPMI1640
Method in brief: (§2)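 Spore suspensions of A. fumigatus and R. pusillus adjusted to 1-2×10^4 spores/mL in RPMI1640 and exposed to compound dilutions prepared in DMSO, by broth microdilution. MEC taken as the lowest concentration shortening hyphae versus DMSO control wells, read as for echinocandins.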

[3] = system: Rhizomucor pusillus 46342; assay: as above; conditions: minimum effective concentration (shortening of hyphae), 35° C., 40-48 h, RPMI1640
Method in brief: as §2

Cryptococcus gattii = assay: In vitro antifungal assay (Example IX), microdilution broth, MIC; conditions: minimum inhibitory concentration (≥50% inhibition), 35° C., 72 h (Cryptococcus), RPMI1640
Method in brief: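 Broth microdilution in RPMI1640 with 2.5×10^3 cells/mL inoculum; final compound concentrations were 2–0.0019 μg/mL, with 1% DMSO. Cryptococcus plates were incubated at 35 °C for 72 h, and growth was read at 600 nm to give the MIC.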

Row | SMILES | MIC (Candida albicans 90028) | MIC [1] | MIC (Cryptococcus gattii) | minimal effective concentration [2] | minimal effective concentration [3]
1 | Nc1ncccc1-c1cc(Cc2ccc(Oc3cccc(F)c3)nc2)no1 [compound 130, 3-(3-((6-(3-fluorophenoxy)pyridin-3-yl)methyl)isoxazol-5-yl)pyridin-2-amine] | 0.01 to 0.1 µg/mL (≈ 0.0276 to 0.276 µM) | ≤ 0.01 µg/mL | 0.01 to 0.1 µg/mL (≈ 0.0276 to 0.276 µM) | 0.01 to 0.1 µg/mL | 0.1 to 1 µg/mL
2 | Nc1ncccc1-c1cc(Cc2ccc(OCc3ccncc3)cc2)no1 [Example 139, 3-(3-(4-(pyridin-4-ylmethoxy)benzyl)isoxazol-5-yl)pyridin-2-amine] | 0.01 to 0.1 µg/mL (≈ 0.0279 to 0.279 µM) | 0.01 to 0.1 µg/mL (≈ 0.0279 to 0.279 µM) | ≤ 0.01 µg/mL | 0.1 to 1 µg/mL | > 1 µg/mL
3 | Nc1ncccc1-c1cc(Cc2ccc(CNc3ccnc(F)c3)cc2)no1 [compound 70, 3-(3-(4-(((2-fluoropyridin-4-yl)amino)methyl)benzyl)isoxazol-5-yl)pyridin-2-amine] | 0.1 to 1 µg/mL (≈ 0.266 to 2.66 µM) | 0.1 to 1 µg/mL (≈ 0.266 to 2.66 µM) | 0.1 to 1 µg/mL (≈ 0.266 to 2.66 µM) | 0.01 to 0.1 µg/mL | > 1 µg/mL
4 | Nc1ccc(-c2cc(Cc3ccc(Oc4cccc(F)n4)cc3)no2)c(N)n1 [compound 134, 3-(3-(4-((6-fluoropyridin-2-yl)oxy)benzyl)isoxazol-5-yl)pyridine-2,6-diamine] | 0.1 to 1 µg/mL (≈ 0.265 to 2.65 µM) | 0.01 to 0.1 µg/mL (≈ 0.0265 to 0.265 µM) | 0.01 to 0.1 µg/mL (≈ 0.0265 to 0.265 µM) | 0.1 to 1 µg/mL | 0.1 to 1 µg/mL
5 | Nc1ncccc1-c1cc(Cc2ccc(Nc3cccc(F)c3F)nc2)no1 [compound 72, 5-((5-(2-aminopyridin-3-yl)isoxazol-3-yl)methyl)-N-(2,3-difluorophenyl)pyridin-2-amine] | 0.01 to 0.1 µg/mL (≈ 0.0264 to 0.264 µM) | 0.01 to 0.1 µg/mL (≈ 0.0264 to 0.264 µM) | 0.1 to 1 µg/mL (≈ 0.264 to 2.64 µM) | 0.1 to 1 µg/mL | 0.1 to 1 µg/mL
6 | Nc1ncccc1-c1cc(Cc2ccc(OCCc3ccccc3F)nc2)no1 [compound 77, 3-(3-((6-(2-fluorophenethoxy)pyridin-3-yl)methyl)isoxazol-5-yl)pyridin-2-amine] | 0.01 to 0.1 µg/mL (≈ 0.0256 to 0.256 µM) | 0.01 to 0.1 µg/mL (≈ 0.0256 to 0.256 µM) | 0.01 to 0.1 µg/mL (≈ 0.0256 to 0.256 µM) | 0.1 to 1 µg/mL | 0.1 to 1 µg/mL
7 | Nc1ncccc1-c1cc(Cc2ccc(OCc3ccoc3)nc2)no1 [compound 48, 3-(3-((6-(furan-3-ylmethoxy)pyridin-3-yl)methyl)isoxazol-5-yl)pyridin-2-amine] | 0.01 to 0.1 µg/mL (≈ 0.0287 to 0.287 µM) | 0.01 to 0.1 µg/mL (≈ 0.0287 to 0.287 µM) | 0.01 to 0.1 µg/mL (≈ 0.0287 to 0.287 µM) | 0.01 to 0.1 µg/mL | 0.1 to 1 µg/mL

More lines, main results first:

Row | MIC (Candida albicans 90028) | MIC [1] | MIC (Cryptococcus gattii) | SMILES | minimal effective concentration [2] | minimal effective concentration [3]
8 | > 1 µg/mL | > 1 µg/mL | > 1 µg/mL | N#CCCOc1ccc(Cc2cc(-c3cccnc3N)on2)cn1 [compound 224, 3-((5-((5-(2-aminopyridin-3-yl)isoxazol-3-yl)methyl)pyridin-2-yl)oxy)propanenitrile] | > 1 µg/mL | > 1 µg/mL
9 | 0.1 to 1 µg/mL (≈ 0.25 to 2.5 µM) | 0.1 to 1 µg/mL (≈ 0.25 to 2.5 µM) | 0.1 to 1 µg/mL (≈ 0.25 to 2.5 µM) | Nc1ncccc1-c1cc(Cc2ccc(OCc3csc(Cl)n3)nc2)no1 [compound 220, 3-(3-((6-((2-chlorothiazol-4-yl)methoxy)pyridin-3-yl)methyl)isoxazol-5-yl)pyridin-2-amine] | 0.1 to 1 µg/mL | 0.1 to 1 µg/mL
10 | 0.01 to 0.1 µg/mL (≈ 0.0264 to 0.264 µM) | 0.01 to 0.1 µg/mL (≈ 0.0264 to 0.264 µM) | 0.01 to 0.1 µg/mL (≈ 0.0264 to 0.264 µM) | Nc1ncccc1-c1cc(Cc2ccc(Nc3c(F)cccc3F)nc2)no1 [compound 237, 5-((5-(2-aminopyridin-3-yl)isoxazol-3-yl)methyl)-N-(2,6-difluorophenyl)pyridin-2-amine] | 0.1 to 1 µg/mL | > 1 µg/mL
11 | 0.01 to 0.1 µg/mL (≈ 0.0255 to 0.255 µM) | 0.01 to 0.1 µg/mL (≈ 0.0255 to 0.255 µM) | 0.1 to 1 µg/mL (≈ 0.255 to 2.55 µM) | Nc1ncccc1-c1cc(Cc2ccc(CNc3cc(F)ccc3F)cc2)no1 [compound 196, 3-(3-(4-(((2,5-difluorophenyl)amino)methyl)benzyl)isoxazol-5-yl)pyridin-2-amine] | 0.1 to 1 µg/mL | 0.1 to 1 µg/mL

Reference: US11512079B2, “Heterocycle substituted pyridine derivative antifungal agents” (Amplyx Pharmaceuticals, Inc., priority 2017, dated 2022)
